Laboratory results from patent US12331040B2 (Karyopharm Therapeutics Inc., priority 2013, dated 2025).

Tests used:
Assay in all cases: MTT cell proliferation assay
Format in all cases: cell-based
[1] = test system: ANBL-6 cells; conditions: Homo sapiens, 72-hour MTT
Description: (§1) The MTT cell proliferation assay was used to study the cytotoxic properties of the compounds. The assay was performed according to the method described by Roche Molecular Biochemicals, with minor modifications. The assay is based on the cleavage of the tetrazolium salt, MTT, in the presence of an electron-coupling reagent. The water-insoluble formazan salt produced must be solubilized in an additional step. Cells grown in a 96-well tissue culture plate were incubated with the MTT solution for approximately 4 hours. After this incubation period, a water-insoluble formazan dye formed. After solubilization, the formazan dye was quantitated using a scanning multi-well spectrophotometer (ELISA reader). […] The cells were seeded at 5,000-10,000 cells in each well of 96-well plate in 100 μL of fresh culture medium and were allowed to attach overnight. The stock solutions of the compounds were diluted in 100 μL cell culture medium to obtain eight concentrations of each test compound, ranging from 1 nM to 30 μM. […] All optical densities were measured at 490 nm using a Vmax Kinetic Microplate Reader (Molecular Devices). In most cases, the assay was performed in duplicate and the results were presented as a mean percent inhibition to the negative control±SE. The following formula was used to calculate the percent of inhibition: Inhibition (%)=(1−(ODo/OD))×100.
(§2) Compounds 504, 510, 525 and 585 were further tested against selected solid and hematological cancer cell lines and selected normal cell lines in a 72-hour MTT cell proliferation assay.

[2] = test system: BL-2 cells; conditions: BL2, 72-hour MTT
Description: as §1, §2

[3] = test system: BL-40 cells; conditions: 72-hour MTT
Description: as §1, §2

[4] = test system: BT-20 cells; conditions: Homo sapiens, 72-hour MTT
Description: as §1, §2

[5] = test system: BT-474 cells; conditions: Homo sapiens, 72-hour MTT
Description: as §1, §2

[6] = test system: BT-549 cells; conditions: Homo sapiens, 72-hour MTT
Description: as §1, §2

[7] = test system: C6 cells; conditions: Rattus norvegicus, 72-hour MTT
Description: as §1, §2

[8] = test system: CAPAN-1 cells; conditions: Homo sapiens, 72-hour MTT
Description: as §1, §2

[9] = test system: Calu-3 cells; conditions: Homo sapiens, 72-hour MTT
Description: as §1, §2

[10] = test system: DB cells; conditions: Homo sapiens, 72-hour MTT
Description: as §1, §2

[11] = test system: HCC-202 cells; conditions: HCC202, 72-hour MTT
Description: as §1, §2

[12] = test system: HCC-4006 cells; conditions: Homo sapiens, HCC4006, 72-hour MTT
Description: as §1, §2

[13] = test system: HCC-827 cells; conditions: Homo sapiens, HCC827, 72-hour MTT
Description: as §1, §2

[14] = test system: HT1080 cells; conditions: Homo sapiens, HT-1080, 72-hour MTT
Description: as §1, §2

[15] = test system: Hs578T cells; conditions: Homo sapiens, Hs-578T, 72-hour MTT
Description: as §1, §2

[16] = test system: Hs738.st cells; conditions: 72-hour MTT
Description: as §1, §2

[17] = test system: K562 cells; conditions: Homo sapiens, 72-hour MTT
Description: as §1, §2

[18] = test system: MCF-12A cells; conditions: Homo sapiens, 72-hour MTT
Description: as §1, §2

[19] = test system: MCF7 cells; conditions: Homo sapiens, 72-hour MTT
Description: as §1, §2

[20] = test system: MDA-MB-175 cells; conditions: 72-hour MTT
Description: as §1, §2

[21] = test system: MDA-MB-361 cells; conditions: Homo sapiens, 72-hour MTT
Description: as §1, §2

[22] = test system: MO7e cells; conditions: 72-hour MTT
Description: as §1, §2

[23] = test system: MSTO-211H cells; conditions: Homo sapiens, 72-hour MTT
Description: as §1, §2

[24] = test system: MiaPaCa-2 cells; conditions: Homo sapiens, MIA PaCa-2, 72-hour MTT
Description: as §1, §2

[25] = test system: NCI-H1563 cells; conditions: Homo sapiens, 72-hour MTT
Description: as §1, §2

[26] = test system: NHEK cells; conditions: 72-hour MTT
Description: as §1, §2

[27] = test system: PANC-10.05 cells; conditions: Homo sapiens, Panc1005, 72-hour MTT
Description: as §1, §2

[28] = test system: PATU-8902 cells; conditions: 72-hour MTT
Description: as §1, §2

[29] = test system: Panc-1 cells; conditions: Homo sapiens, 72-hour MTT
Description: as §1, §2

[30] = test system: RKO cells; conditions: Homo sapiens, 72-hour MTT
Description: as §1, §2

[31] = test system: RL cells; conditions: Homo sapiens, 72-hour MTT
Description: as §1, §2

[32] = test system: Raji cells; conditions: Homo sapiens, 72-hour MTT
Description: as §1, §2

[33] = test system: SHP-77 cells; conditions: Homo sapiens, SHP77, 72-hour MTT
Description: as §1, §2

[34] = test system: SW-900 cells; conditions: Homo sapiens, SW900, 72-hour MTT
Description: as §1, §2

[35] = test system: SW-948 cells; conditions: Homo sapiens, SW948, 72-hour MTT
Description: as §1, §2

[36] = test system: T47D cells; conditions: Homo sapiens, 72-hour MTT
Description: as §1, §2

[37] = test system: TF-1 cells; conditions: Homo sapiens, 72-hour MTT
Description: as §1, §2

[38] = test system: TFK-1 cells; conditions: 72-hour MTT
Description: as §1, §2

[39] = test system: THP1 cells; conditions: Homo sapiens, THP-1, 72-hour MTT
Description: as §1, §2

[40] = test system: U-266 cells; conditions: Homo sapiens, 72-hour MTT
Description: as §1, §2

[41] = test system: U-937 cells; conditions: Homo sapiens, 72-hour MTT
Description: as §1, §2

Work on `Nc1ccc(/C=C/C(=O)NCc2cc3cc(-c4ccc(C(=O)N5CCC(F)(F)CC5)cn4)cc(C(F)(F)F)c3o2)cn1` [Compound 585, (E)-3-(6-aminopyridin-3-yl)-N-((5-(5-(4,4-difluoropiperidine-1-carbonyl)pyridin-2-yl)-7-(trifluoromethyl)benzofuran-2-yl)methyl)acrylamide] yielded an IC50 [1] of 1.01 µM, an IC50 [2] of 0.18 µM and an IC50 [3] of 0.3 µM. The IC50 [4] was 0.54 µM, the IC50 [5] was 6.47 µM and the IC50 [6] was 1.53 µM. For the same compound, the IC50 [7] was over 10 µM, the IC50 [8] was 0.09 µM and the IC50 [9] was 0.33 µM. The IC50 [10] was 0.29 µM, the IC50 [11] was 1.69 µM and the IC50 [12] was 0.74 µM. The IC50 [13] was 0.78 µM, the IC50 [14] was 0.21 µM and the IC50 [15] was 0.25 µM. The IC50 [16] was 0.45 µM, the IC50 [17] was 1.09 µM and the IC50 [18] was 0.38 µM. It also gave an IC50 [19] of 0.7 µM, an IC50 [20] of over 10 µM and an IC50 [21] of over 10 µM. For the same compound, the IC50 [22] was 0.02 µM, the IC50 [23] was 0.25 µM and the IC50 [24] was 0.88 µM. It also gave an IC50 [25] of 0.39 µM, an IC50 [26] of 10.4 µM and an IC50 [27] of 0.87 µM. For the same compound, the IC50 [28] was 0.51 µM, the IC50 [29] was 0.84 µM and the IC50 [30] was 0.05 µM. For the same compound, the IC50 [31] was 0.21 µM, the IC50 [32] was 0.09 µM and the IC50 [33] was 0.21 µM. For the same compound, the IC50 [34] was over 10 µM, the IC50 [35] was 0.91 µM and the IC50 [36] was 0.04 µM. It also gave an IC50 [37] of 0.06 µM, an IC50 [38] of 1.03 µM and an IC50 [39] of 0.02 µM. It also gave an IC50 [40] of 0.31 µM and an IC50 [41] of 0.26 µM.
